Settings: for Change in contents (per capsule): Initial content: cosurfactant content in soft capsule
Excerpt: The membrane permeation property of dimethylisosorbide over the storage period at the room temperature was examined for the soft capsules prepared using dimethylisosorbide (ARLASOLVE® DMI) as a cosurfactant according to the present invention and then compared with the membrane permeation properties of ethanol, propylene glycol, Transcutol (diethylene glycol monoethyl ether) and Glycofurol (tetrahydrofurfuryl alcohol polyethylene glycol ether). The content of the cosurfactant in each soft capsule preparation was analyzed by gas chromatography. The components and their constitutional ratios in the compositions used in this experiment are given in the following Table 1 and the experiment results are given in the following Table 2.
Note: Conditions of gas chromatography for each cosurfactant
Column: Ultra 2 (Cross-linked 2% phenylmethyl silicone gun phase, 25 m×0.32 mm, thickness 0.52 μm)
Column temperature: 230° C. (Isothermal)
Detector: FID (Temperature: 270° C.)
Injection temperature: 275° C.
Carrier gas: He (Partition ratio 80:1)
Internal standard: Octyl alcohol
Column: HP-20M (Carbowax 20M) (25 m×0.32 mm, film thickness 0.3 μm)
Column temperature: 30° C. (Isothermal)
Detector: FID (Temperature: 200° C.)
Injection temperature: 150° C.
Internal standard: Diethyl ether
Column temperature: 180° C. (Isothermal)
Detector: FID (Temperature: 240° C.)
Injection temperature: 240° C.
Internal standard: Pentadecanoic acid methyl ester
Column: Ultra 2 (Cross-linked 5% phenylmethyl silicone gun phase, 25 m×0.32 mm, thickness 0.52 μm)
Injection temperature: 270° C.
Detector: FID (Temperature: 270° C.) p1 Injection temperature: 270° C.
Internal standard: Dimethylisosorbide

Row | Compound | Change in contents (per capsule): Initial content | Change in contents (per capsule): Storage period 2 days (room temperature) | Change in contents (per capsule): Storage period 5 days (room temperature, 5 days) | Change in contents (per capsule): Storage period 14 days (room temperature)
1 | CC(O)CO (stereo not drawn) [Propylene glycol, propylene glycol] | 19.8 | 3.6 | 0.9 | 
2 | CCOCCOCCO [Transcutol, diethylene glycol monoethyl ether] | 19.8 | 7.3 |  | 2.7
3 | tetrahydrofurfuryl alcohol polyethylene glycol ether [Glycofurol] | 19.8 | 8.2 |  | 3.2

— patent US5639474A (Hanmi Pharm. Ind., Ltd., priority 1993, dated 1997)
